Results from PMC5190008, “BO-1055, a novel DNA cross-linking agent with remarkable low myelotoxicity shows potent activity in sarcoma models” (Oncotarget, 2016).

Legend:
[1] = test system: benign cells (mesenchymal stromal cells, fetal lung fibroblasts and myofibroblasts, hematopoietic progenitor cells, endothelial cells, MS-5); test: Alamar blue cytotoxicity in benign cells; format: cell-based, human, murine; conditions: up to 10 μM, most of the tested cells
Method: We also examined the effect of BO-1055 in inhibiting the cell growth of different types of benign cells including human mesenchymal stromal cells, fetal lung fibroblasts and myofibroblasts, hematopoietic progenitor cells, bone marrow derived endothelial cells and human umbilical vein endothelial cells and murine mesenchymal stromal cells, MS-5 (murine).
AlamarBlue® assay (Invitrogen, Carlsbad, CA, USA) was performed to evaluate anti-proliferative activity of the drugs in cell lines and primary cells. Cells were plated in 96-well plates ([…] in 200 μL of medium). After 12 h, one of the previously mentioned drugs was added to each well at the specified concentration and incubated for 72 h. At the end of the incubation period, 20 μL of stock solution (0.312 mg/mL) of the Alamar Blue was added to each well. The absorbance was measured using the Synergy H1 hybrid multi-mode microplate reader (BioTek, USA). The drug effect was quantified as the percentage of control absorbance at 540 nm and 585 nm. Optical density was determined for 3 replicates per treatment condition and cell proliferation in drug-treated cells was normalized to their respective controls. All experiments were performed in triplicate.

[2] = test system: patient derived Ewing sarcoma xenografts; test: Combination in vivo study in Ewing sarcoma PDX; set-up: species or system NSG mice
[3] = test system: human CD34+ hematopoietic stem cells isolated from cord blood; test: Colony forming unit (CFU) assay; format: cell-based; conditions: concentration < 5μM
Method: We performed the colony forming unit (CFU) assays using human CD34+ hematopoietic stem cells isolated from cord blood to elucidate hematologic toxicity. We noted no effect on BFU-E, GM and mixed colonies at a concentration < 5μM of BO-1055 on CFU assay (Figure 2C).
Colony assays were performed in triplicate in 24 well plates using 1.2% methylcellulose (Dow Chemical, Waterloo, NY), 30% FCS, 57.2 μM β-mercaptoethanol, 2 mM glutamine, 0.5 mM hemin (Sigma, USA), 20 ng/mL interleukin 3 (IL-3), granulocyte colony stimulating factor (G-CSF), c-KIT ligand (KL) and 6 U/mL erythropoietin (Epo). IL-3 and KL and Epo were obtained from R and D Systems (Minneapolis, USA) and G-CSF was from Amgen (Thousand Oaks, CA). Colonies were scored 14 days after plating as per the protocol described earlier.

leukemia cell lines = test system: leukemia cell lines; set-up: method as in PMID 21106377; conditions: leukemia cell lines ref 6; cited from earlier work
A204 xenografts = A204 xenografts in nude mice; format: in vivo
Method: All mouse experiments were performed at the animal core facility at MSKCC under an approved protocol following the IACUC guidelines. Five to seven-week-old NOD/SCID IL2R gamma null (NSG) mice (bred at the Mouse Genetics Core Facility, MSKCC) were used for in vivo experiments. All mouse experiments were done following the IACUC guidelines at the animal facility at MSKCC. Tumors were induced using 10^6 A673 cells or A204 cells in 0.2ml 1:1 cellular medium, Matrigel matrix (BD Bioscience, Bedford, MA) and injected subcutaneously (s.q) into the right flank. The tumors were measured every 3 d with a caliper, and the diameters were recorded. Tumor volume was calculated by the formula a^2 b/2 where ‘a’ is the smallest and ‘b’ is the largest diameter. When the tumors reached 100mm^3, we randomized mice into control and drug treatment groups. Treatment groups received BO-1055 by tail vein injection at 10mg/kg, 20mg/kg and 30mg/kg q2d x 5 doses for mice bearing A673 xenografts. BO-1055 was given at 30mg/kg q2d x 5 doses for mice bearing A204 xenografts. De-identified patient tumor tissues were obtained in accordance with and approval from the MSKCC Institutional Review Board (IRB). Appropriate written consent and assent were obtained from the patients prior to sample collection. […]

CN(C)CCNC(=O)c1cccc(NC(=O)Nc2ccc(N(CCCl)CCCl)cc2)c1 [BO-1055]
cytotoxicity against benign cells [1]: minimal to no cytotoxicity
tumor regression in combination group compared to single drug groups ([2]; BO-1055 IV plus Irinotecan IP, 10mg/kg/dose qd x 5 or 5mg/kg/dose qd x 5, day 14): significantly greater
weight loss in combination group compared to single drug groups ([2]; BO-1055 plus Irinotecan): No significant weight loss
effect on BFU-E, GM and mixed colonies [3]: no effect
cross resistance to taxol or vinblastine (leukemia cell lines): little or no cross resistance
body weight (A204 xenografts; 30mg/kg q2d x 5): no significant decrease in body weight
tumor response (A204 xenografts; 30mg/kg q2d x 5, tail vein): Complete regression of tumors
